The structures appear in SMILES notation.

The test deals with T1, ACVR1B (ALK4) (Homo sapiens, UniProt P36896).
T1 construct: purchased Thermo Fisher Scientific (Life Technologies) SelectScreen
The test can be described thus: SelectScreen Z'LYTE. The test is classed as biochemical. In short, it runs like this: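 Percent values come from Thermo SelectScreen profiling of NU5455, combining activity and binding assays. CSF1R was run in Z'LYTE format at Km app ATP, and CAMK1 in Adapta format with ATP listed at 10.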

T1 sequence (P36896 24-505): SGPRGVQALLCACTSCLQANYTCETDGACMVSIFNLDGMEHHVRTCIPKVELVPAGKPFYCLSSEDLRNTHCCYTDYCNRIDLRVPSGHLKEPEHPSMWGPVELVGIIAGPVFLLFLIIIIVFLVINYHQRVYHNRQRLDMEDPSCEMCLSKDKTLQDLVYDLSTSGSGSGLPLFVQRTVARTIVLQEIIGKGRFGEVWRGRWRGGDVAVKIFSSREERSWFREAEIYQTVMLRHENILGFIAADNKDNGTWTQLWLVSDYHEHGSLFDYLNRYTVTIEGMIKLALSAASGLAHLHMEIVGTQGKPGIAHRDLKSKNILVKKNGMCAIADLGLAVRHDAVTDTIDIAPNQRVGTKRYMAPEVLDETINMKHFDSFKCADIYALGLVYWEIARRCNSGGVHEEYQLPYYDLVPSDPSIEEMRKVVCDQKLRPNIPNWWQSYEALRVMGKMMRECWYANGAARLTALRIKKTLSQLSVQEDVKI

What is called inhibition is how much of the control response was suppressed. High values mean strong suppression, low ones little suppression. Compound `CN(C(=O)CN1CCOCC1)c1ccc2sc3c(-c4cccc5c(=O)cc(N6CC7CCC(C6)O7)oc45)cccc3c2c1` [NU5455] showed an inhibition at 1 µM of 2%.

For the origin of these results see article PMC6934184, “Selective DNA-PKcs inhibition extends the therapeutic index of localized radiotherapy and chemotherapy” (The Journal of Clinical Investigation, 2019).
